The source of these data is patent US10328075B2, “Method of treatment and compounds for use therein” (Baker Heart and Diabetes Institute, priority 2015, dated 2019).

By Emax is commonly meant the greatest response seen or fitted, relative to the assay's reference.

Each structure is given as a SMILES string. Like-named read-outs stand apart in the source and are kept apart here.

One experiment concerns the target T1, hFPR2 (Homo sapiens, UniProt P25090).
T1 construct: expressed in transfected cells
T1 sequence (P25090 1-351): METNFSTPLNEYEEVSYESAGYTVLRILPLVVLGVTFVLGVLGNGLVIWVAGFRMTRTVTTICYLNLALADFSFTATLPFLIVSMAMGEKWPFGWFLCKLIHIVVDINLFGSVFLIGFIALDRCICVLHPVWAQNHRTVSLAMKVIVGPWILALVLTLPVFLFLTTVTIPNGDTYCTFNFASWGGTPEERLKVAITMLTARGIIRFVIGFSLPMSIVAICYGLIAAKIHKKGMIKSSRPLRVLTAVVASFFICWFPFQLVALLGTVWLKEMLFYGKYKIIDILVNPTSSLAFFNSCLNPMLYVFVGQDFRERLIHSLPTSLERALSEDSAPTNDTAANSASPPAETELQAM
Put plainly: [Ca2+]i mobilization in FlpIn-CHO cells stably expressing hFPR2. The class given is cell-based. Conditions: for Emax: Flp-In-CHO; for ΔLog(τ/KA), [Ca^2+]i mobilization, hFPR2-Flpln-CHO: normalized transduction coefficient, reference agonist Cmpd43; for Log(τ/KA), [Ca^2+]i mobilization, hFPR2-Flpln-CHO: transduction coefficient; for EC50: read-out: pEC50, [Ca^2+]i mobilization, hFPR2-Flpln-CHO (converted). From the text:
cDNDA construct and generation of stable cell lines: cDNA in pcDNA3.1^+ encoding the human formyl peptide receptors (FPR) subtypes, hFPR1, hFPR2 and hFPR3 was obtained from Invitrogen. The sequences for 3 hFPR receptors were amplified by PCR and cloned into the Gateway entry vector, pDONR202™, using the BP clonase enzyme mix, according to the manufactures' instructions (Invitrogen Inc, Carlsbad, Calif., USA). All hFPR receptors constructs in pDONR201™ were subsequently transfected into the pEF5/FRT/V5/dest vector using the LR clonase enzyme mix (Invitrogen). Receptor constructs (pEF5/FRT/V5/dest) were used to transfect FIp-In CHO cells as described previously (Valant C et al., PNAS, 2014). Cells were selected using 500 μg/mL hydromycin to generate cell lines stably expressing each receptor construct. Cells were maintained and cultured in high glucose DMEM supplemented with 10% FBS, 16 mM HEPES and 500 μg/mL hydromycin at 37° C. under a humidified atmosphere containing 5% CO2.
In the various assays described below, cells were plated into 96-well transparent cell culture plates at 4×10^4 cells per well, cultured overnight in serum-free media at 37° C. in 5% CO2.
Intracellular calcium mobilization: Intracellular calcium mobilization was assayed as described previously (Keov, P et al., 2014). Briefly, cells were washed once using HEPES buffered saline (HBS) solution [150 mM NaCl, 2.2 mM CaCl2, 2.6 mM KCl, 1.2 mM MgCl2, 10 mM HEPEs, 10 mM D-Glucose, 0.5% (w/v) bovine serum albumin (BSA) and 4 mM probenecid] at pH 7.4, then treated with Fluo-4-AM (1 μM, in HBS/BSA/probenecid) for 60 min at 37° C. in 5% CO2 in the dark. Cells were then further washed and placed in HBS/BSA/probenecid solution for ligation addition and assay using the FLEXstation 3 plate reader (Molecular Devices, Sunnyvale, Calif.). For all experiments, peak change in fluorescence signal was normalized to the cellular response to 100 μM ATP, which was used as an internal positive control.
Data analysis: All data were analysed using GraphPad Prism 6.0 (GraphPad Software, San Deigo, Calif., USA). Where appropriate, concentration-response curves were fitted to derive the maximal agonist effect (Emax), and the ligand potency estimate (pEC50), where Emax is the maximal possible response of the system (not the agonist), basal is the basal level of response in the absence of agonist, and pEC50 is the negative logarithm of the agonist concentration that gives a response halfway between Emax and basal.
In the present study, FIp-IN CHO cells and Gateway plasmid were obtained from Invitrogen Inc (Carlsbad, Calif., USA). The sequences for all 3 known human FPRs (hFPR1, hFPR2 and hFPR3) were amplified by PCR and cloned into the Gateway entry vector, pDONR202TM, using the BP clonase enzyme mix, according to the manufacturers' instructions. The hFPR pDONR201TM constructs were subsequently transfected into the pEF5/FRT/V5/dest vector using the LR clonase enzyme mix (Invitrogen). Receptor constructs (pEF5/FRT/V5/dest) were used to transfect FIp-IN CHO cells, as described previously (Valant et al. 2014). Cells were selected using 500 μg/mL hydromycin to generate cell lines stably expressing each human receptor construct. Cells were maintained and cultured in high glucose Dulbecco's modified eagle medium (DMEM) supplemented with 10% fetal bovine serum (FBS, from JRH Biosciences, Lenexa, Kans., USA) and 500 μg/mL hydromycin B (Invitrogen Inc) at 37° C. under a humidified atmosphere containing 5% CO2. Cell were plated into 96-well transparent cell culture plates at 4×10^4 cells per well, cultured overnight in serum-free media at 37° C. in 5% CO2.
(ii) Intracellular Ca2+ mobilization: Intracellular Ca2+ mobilization was determined in stably-transfected recombinant hFPR CHO cells, as described previously (Valant et al. 2014).

The test system of experiment [1] is mFpr1, mFpr2 expression in AMCF. Put plainly: Fpr gene expression in adult mouse cardiac fibroblasts (real-time PCR). It counts as cell-based. Conditions: 10 μM, 24 h incubation, TGF-β. The procedure:
AMCFs were starved overnight in serum-free DMEM prior to incubation with the pro-fibrotic stimulus transforming growth factor TGF-β (10 ng/ml) for 24 h at 37° C. FPR agonists Cmpd17b, Cmpd43 (both 10 μM) or vehicle were present 30 min prior to TGF-β. At the end of 24 h stimulation, RNA was extracted and real-time PCR performed to determine the relative gene expression of CTGF and IL-1β, relative to housekeeping gene 18S, as described previously (5). Relative gene expression of mouse Fprs (mFpr1 and mFpr2, expressed as the threshold cycle number Ct subtracted from the maximum cycle number utilized, 40) was also determined at the end of 24 h stimulation.
A general note: Real-time PCR tracks product formation cycle by cycle.

Where [2] appears, read: Table 1, percentage of [Ca^2+]i mobilization elicited by ATP, read-out: Emax (%), [Ca^2+]i mobilization, hFPR2-Flpln-CHO.
Setting [3] is: Table 8, percent of response elicited by ATP, read-out: Emax, [Ca^2+]i mobilization, hFPR2-Flpln-CHO.

For the compound `CSCC[C@H](NC=O)C(=O)N[C@@H](CC(C)C)C(=O)N[C@@H](Cc1ccccc1)C(=O)O` [fMLP, N-formyl-Met-Leu-Phe], the Emax at hFPR2 (setting [2]) and at hFPR2 (setting [3]) was 38 ± 4% throughout. On hFPR2 (Table 8), the “ΔLog(τ/KA), [Ca^2+]i mobilization, hFPR2-Flpln-CHO” value is recorded as −2.2 ± 0.3. Besides, on hFPR2 (Table 8), the “Log(τ/KA), [Ca^2+]i mobilization, hFPR2-Flpln-CHO” value is given as 5.4 ± 0.1. At hFPR2 (in words), the “Potency range of Ca^2+ mobilization in hFPR2-CHO cells” value is recorded as “micromolar range”.

Consider `COc1cccc(Cc2cc(C)nn(C(C)C(=O)Nc3ccc(Br)cc3)c2=O)c1` (centres unmarked) [BIDI-001, N-(4-bromophenyl)-2-[5-(3-methoxybenzyl)-3-methyl-6-oxo-6H-pyridazin-1-yl]-propionamide], for which, in experiment [1], the “AMCF expression of mFpr1” value is “did not significantly influence” and the “AMCF expression of mFpr2” value is on record as “did not significantly influence”.

As to `CC(C)C1C(NC(=O)Nc2ccc(Cl)cc2)C(=O)N(c2ccccc2)N1C` (centres unmarked) [BIDI-002], the Emax at hFPR2 (setting [2]) amounted to 51 ± 3%. Besides, at hFPR2 (setting [3]), the Emax worked out at 51 ± 3%. Besides, the EC50 at hFPR2 (Table 1) was 20.9 nM. On hFPR2 (Table 8), the “ΔLog(τ/KA), [Ca^2+]i mobilization, hFPR2-Flpln-CHO” value was determined as 0.0; the EC50 is 20 nM; the “Log(τ/KA), [Ca^2+]i mobilization, hFPR2-Flpln-CHO” value is 7.7 ± 0.3. The “AMCF expression of mFpr1” value in experiment [1] is “restored”.
